This is an account of results in patent US20080004272A1, “Compositions and methods for modulating gated ion channels” (PainCeptor Pharma Corporation, priority 2006, published 2008).

The structures appear in SMILES notation.

This assay deals with T1, ASIC1a (Homo sapiens, UniProt P78348).
T1 sequence (P78348 1-528): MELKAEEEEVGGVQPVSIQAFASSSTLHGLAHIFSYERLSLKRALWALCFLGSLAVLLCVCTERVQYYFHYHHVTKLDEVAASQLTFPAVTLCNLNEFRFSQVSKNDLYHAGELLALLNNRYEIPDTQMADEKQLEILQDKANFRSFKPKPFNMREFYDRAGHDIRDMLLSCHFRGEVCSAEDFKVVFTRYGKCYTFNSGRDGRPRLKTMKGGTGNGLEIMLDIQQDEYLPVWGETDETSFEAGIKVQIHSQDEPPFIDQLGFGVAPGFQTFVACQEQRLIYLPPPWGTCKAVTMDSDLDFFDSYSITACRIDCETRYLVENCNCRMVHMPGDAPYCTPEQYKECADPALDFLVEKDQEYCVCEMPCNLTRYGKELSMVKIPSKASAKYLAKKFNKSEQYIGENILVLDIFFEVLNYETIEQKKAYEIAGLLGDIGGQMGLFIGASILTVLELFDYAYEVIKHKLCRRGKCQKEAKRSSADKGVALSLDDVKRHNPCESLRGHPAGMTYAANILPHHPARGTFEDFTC
Briefly: Calcium imaging of MES-induced calcium response (FLIPR). Particulars: ASIC1a expressing HEK293 cells, MES-induced calcium response; read-out: IC50 (FLIPR). Type of assay: cell-based. Also noted: host or cells: HEK293. The method, then: […] Confluency of cells should be 80-90% on day of plating. Cells are rinsed with 10 ml of PBS and cells are re-suspended by addition of culture medium and trituration with a 25 ml pipette.
The cells are seeded at a density of approximately 1×10^6 cells/ml (100 μl/well) in black-walled, clear bottom, 96-well plates pre-treated with 10 mg/l poly-D-lysin (75 μl/well for ≧30 min). Plated cells are allowed to proliferate for 24 h before loading with dye.
Fluo-4/AM (1 mg, Molecular Probes) is dissolved in 912 μl DMSO. The Fluo-4/AM stock solution (1 mM) is diluted with culture medium to a final concentration of 2 μM (loading solution).
The culture medium is aspirated from the wells, and 50 μl of the Fluo-4/AM loading solution is added to each well. The cells are incubated at 37° C. for 30 min.
Following the second wash, 100 μl modified Assay Buffer is added to each well and the fluorescence is measured in FLIPR™ or FlexStation™ (Molecular Devices, USA), or any other suitable equipment known to the skilled in the art.
Temperature: Room temperature (20-22° C.)
First addition: 50 μl test solution at a rate of 30 μl/sec and a starting height of […]
Second addition: 50 μl MES solution (20 mM, 5 mM final concentration) at a rate of 35 μl/sec and a starting height of 150 μl.
Reading intervals: pre-incubation−10 sec×7 and 3 sec×3 antagonist phase−3 sec×7 and 10 sec×12
Addition plates (compound test plate and MES plate) are placed on the right and left positions in the FLIPR tray, respectively. Cell plates are placed in the middle position and the ASIC1a program is effectuated. FLIPR will then take the appropriate measurements in accordance with the interval settings above. Fluorescence obtained after stimulation is corrected for the mean basal fluorescence (in modified Assay Buffer).
The MES-induced peak calcium response, in the presence of test substance, is expressed relatively to the MES response alone. Test substances that block the MES-induced calcium response are re-tested in triplicates.
Usually IC50 stands for the concentration needed to halve the response being measured. As to `CCOC(=O)c1ccc(-c2cc3c(c4c2CCN(C)C4)NC(=O)C3=NO)cc1` [Compound 1, 4-(3-hydroxyimino-8-methyl-2-oxo-2,3,6,7,8,9-hexahydro-1H-pyrrolo[3,2-h]isoquinolin-5-yl)-benzoic acid ethyl ester], the IC50 was greater than 70 µM.

In the case of `CN1CCc2c(-c3ccc(S(=O)(=O)N4CCOCC4)cc3)cc3c(c2C1)NC(=O)C3=NO` [Compound 2, 8-methyl-5-[4-(morpholine-4-sulfonyl)-phenyl]-6,7,8,9-tetrahydro-1H-pyrrolo[3,2-h]isoquinoline-2,3-dione 3-oxime], the IC50 is greater than 70 µM.

Take `CN1CCc2c(-c3ccc(C(=O)N(C)C)cc3)cc3c(c2C1)NC(=O)C3=NO` [Compound 3, 4-(3-Hydroxyimino-8-methyl-2-oxo-2,3,6,7,8,9-hexahydro-1H-pyrrolo[3,2-h]isoquinolin-5-yl)-N,N-dimethyl-benzamide]: the IC50 was greater than 70 µM.

For `CN1CCc2c(-c3ccc(S(=O)(=O)N4CCN(CCO)CC4)cc3)cc3c(c2C1)NC(=O)C3=NO` [Compound 4, 5-{4-[4-(2-Hydroxy-ethyl)-piperazine-1-sulfonyl]-phenyl}-8-methyl-6,7,8,9-tetrahydro-1H-pyrrolo[3,2-h]isoquinoline-2,3-dione 3-oxime], the IC50 was greater than 70 µM.

With `CN1CCc2c(-c3ccc(S(=O)(=O)N4CCCCC4)cc3)cc3c(c2C1)NC(=O)C3=NO` [Compound 5, 8-Methyl-5-[4-(piperidine-1-sulfonyl)-phenyl]-6,7,8,9-tetrahydro-1H-pyrrolo[3,2-h]isoquinoline-2,3-dione 3-oxime], the IC50 is less than 25 µM.

Turning to `CN1CCc2c(-c3ccc(F)c(Cl)c3)cc3c(c2C1)NC(=O)/C3=N\O` [Compound 14], the IC50 is less than 10 µM.

As to `Cc1cc(-c2cc3c(c4c2CCN(C)C4)NC(=O)/C3=N/O)ccc1F` [Compound 15], the 50% inhibitory concentration (IC50) was less than 10 µM.

As to `CN1CCc2c(-c3ccc(F)c(F)c3)cc3c(c2C1)NC(=O)/C3=N\O` [Compound 16], the IC50 was less than 10 µM.

In the case of `CN1CCc2c(-c3cc(F)cc(F)c3)cc3c(c2C1)NC(=O)/C3=N\O` [Compound 17], the IC50 was less than 10 µM.

For `CN1CCc2c(-c3ccccc3C(F)(F)F)cc3c(c2C1)NC(=O)/C3=N/O` [Compound 18], the IC50 is less than 20 µM.

With `CN1CCc2c(-c3ccccc3F)cc3c(c2C1)NC(=O)/C3=N/O` [Compound 19], the half-maximal inhibitory concentration (IC50) was less than 10 µM.

As to `CO/N=C1/C(=O)Nc2c1cc(-c1ccccc1OC)c1c2CN(C)CC1` [Compound 21], the IC50 lay in the range of 20 to 30 µM.

As for `CN1CCc2c(-c3ccccc3Cl)cc3c(c2C1)NC(=O)/C3=N/O` [Compound 22], the IC50 was 35 to 45 µM.

Turning to `CN1CCc2c(-c3cc(C(F)(F)F)cc(C(F)(F)F)c3)cc3c(c2C1)NC(=O)/C3=N\O` [Compound 23], the IC50 is 40 to 60 µM.

Consider `CCOc1cccc(-c2cc3c(c4c2CCN(C)C4)NC(=O)/C3=N\O)c1` [Compound 25], for which the IC50 is 40 to 60 µM.

Take `CC(=O)c1ccc(-c2cc3c(c4c2CCN(C)C4)NC(=O)/C3=N/O)s1` [Compound 26]: the IC50 was greater than 70 µM.

For the molecule `CN1CCc2c(-c3cccnc3)cc3c(c2C1)NC(=O)/C3=N/O` [Compound 27], the IC50 was greater than 70 µM.

Regarding `CN1CCc2c(-c3cccc(C#N)c3)cc3c(c2C1)NC(=O)/C3=N\O` [Compound 28], the IC50 was greater than 70 µM.

`CN1CCc2c(-c3cccc([N+](=O)[O-])c3)cc3c(c2C1)NC(=O)/C3=N\O` [Compound 29]: the IC50 is greater than 70 µM.

Regarding `CN1CCc2c(-c3cccc(O)c3)cc3c(c2C1)NC(=O)/C3=N/O` [Compound 31], the IC50 was greater than 70 µM.

With `CC(=O)c1ccccc1-c1cc2c(c3c1CCN(C)C3)NC(=O)/C2=N/O` [Compound 32], the IC50 was greater than 70 µM.

Turning to `COc1c2c(c(C(C)=O)c3c1OCO3)CCN(C)C2` [Compound 33], the IC50 is greater than 70 µM.

For `COc1ccccc1-c1cc2c(c3c1CCN(C)C3)NC(=O)/C2=N\O` [Compound 34], the IC50 was less than 10 µM.

Turning to `CN1CCc2c(-c3cccc(Cl)c3)cc3c(c2C1)NC(=O)/C3=N\O` [Compound 35], the IC50 is less than 10 µM.

`CN1CCc2c(-c3cccc(F)c3)cc3c(c2C1)NC(=O)/C3=N\O` [Compound 36]: the IC50 is less than 10 µM.

In the case of `CCOc1ccccc1-c1cc2c(c3c1CCN(C)C3)NC(=O)/C2=N/O` [Compound 37], the IC50 was less than 10 µM.

Consider `COCCOc1ccccc1-c1cc2c(c3c1CCN(C)C3)NC(=O)/C2=N/O` [Compound 38], for which the IC50 was less than 10 µM.

With `CN1CCc2c(-c3cc(F)ccc3F)cc3c(c2C1)NC(=O)/C3=N/O` [Compound 39], the concentration for half-maximal inhibition (IC50) was less than 10 µM.

Consider `CCc1ccccc1-c1cc2c(c3c1CCN(C)C3)NC(=O)/C2=N/O` [Compound 40], for which the half-inhibitory concentration (IC50) was less than 10 µM.

Regarding `Cc1ccccc1-c1cc2c(c3c1CCN(C)C3)NC(=O)/C2=N/O` [Compound 41], the IC50 is less than 10 µM.

For the molecule `COc1cc(F)ccc1-c1cc2c(c3c1CCN(C)C3)NC(=O)/C2=N/O` [Compound 42], the half-maximal inhibitory concentration (IC50) was less than 10 µM.

Turning to `COc1cccc(-c2cc3c(c4c2CCN(C)C4)NC(=O)/C3=N\O)c1` [Compound 43], the IC50 was less than 10 µM.

With `CN1CCc2c(-c3ccccc3Oc3ccccc3)cc3c(c2C1)NC(=O)/C3=N/O` [Compound 44], the IC50 was less than 10 µM.

For the molecule `COc1ncccc1-c1cc2c(c3c1CCN(C)C3)NC(=O)/C2=N/O` [Compound 45], the IC50 is less than 10 µM.

`CC(C)Oc1cccc(-c2cc3c(c4c2CCN(C)C4)NC(=O)/C3=N\O)c1` [Compound 46]: the IC50 lay in the range of 40 to 60 µM.

With `CC(=O)c1cccc(-c2cc3c(c4c2CCN(C)C4)NC(=O)/C3=N/O)c1` [Compound 47], the half-inhibitory concentration (IC50) was greater than 70 µM.

Turning to `CN1CCc2c(-c3cccc(N)c3)cc3c(c2C1)NC(=O)/C3=N/O` [Compound 48], the IC50 was greater than 70 µM.

For `CN1CCc2c(-c3cccc(C(F)(F)F)c3)cc3c(c2C1)NC(=O)/C3=N/O` [Compound 49], the IC50 was greater than 70 µM.

For `CN1CCc2c(-c3ccc(F)cc3F)cc3c(c2C1)NC(=O)/C3=N/O` [Compound 50], the IC50 was greater than 70 µM.

Regarding `CN1CCc2c(-c3cccc(OC(F)(F)F)c3)cc3c(c2C1)NC(=O)/C3=N/O` [Compound 51], the IC50 was greater than 70 µM.

On to `Cc1cc(F)ccc1-c1cc2c(c3c1CCN(C)C3)NC(=O)/C2=N/O` [Compound 52], for which the IC50 was greater than 70 µM.

Consider `CN1CCc2c(-c3ccccc3OC(F)(F)F)cc3c(c2C1)NC(=O)/C3=N/O` [Compound 53], for which the IC50 is greater than 70 µM.

On to `CN1CCc2c(-c3ccc(OC(F)(F)F)cc3)cc3c(c2C1)NC(=O)/C3=N/O` [Compound 54], for which the IC50 is greater than 70 µM.

`CN1CCc2c(-c3ccncc3)cc3c(c2C1)NC(=O)/C3=N/O` [Compound 55]: the IC50 was greater than 70 µM.

Consider `CN1CCc2c(-c3ccsc3C=O)cc3c(c2C1)NC(=O)/C3=N/O` [Compound 56], for which the IC50 is greater than 70 µM.

On to `C/C(=N\O)c1c2c(c(O)c3c1OCO3)CN(C)CC2` [Compound 57], for which the IC50 was greater than 70 µM.

In the case of `CN1CCc2c(-c3cccc4c3oc3ccccc34)cc3c(c2C1)NC(=O)/C3=N/O` [Compound 58], the IC50 was greater than 70 µM.

In the case of `CN1CCc2c(-c3ccccc3)cc3c(c2C1)NC(=O)/C3=N/OC1O[C@H](CO)[C@@H](O)[C@H](O)[C@H]1O` (stereo partly shown) [Compound 59], the IC50 was greater than 70 µM.

As to `COc1c(F)cc(F)cc1-c1cc2c(c3c1CCN(C)C3)NC(=O)/C2=N/O` [Compound 60], the IC50 was greater than 70 µM.

Turning to `CN1CCc2c(-c3cccc(F)c3F)cc3c(c2C1)NC(=O)/C3=N/O` [Compound 68], the IC50 was less than 20 µM.

Consider `CN1CCc2c(-c3ccoc3)cc3c(c2C1)NC(=O)/C3=N/O` [Compound 69], for which the IC50 is less than 20 µM.

As to `CC(=O)N1CCc2c(-c3ccc(Cl)cc3)cc3c(c2C1)NC(=O)C3=NO` [Compound 70, 8-Acetyl-5-(4-chloro-phenyl)-6,7,8,9-tetrahydro-1H-pyrrolo[3,2-h]isoquinoline-2,3-dione 3-oxime], the IC50 was greater than 70 µM.
